Consider 38 compounds from patent US9493434B2, “Substituted indenes as medicaments” (LABORATORIOS DEL DR. ESTEVE S.A., priority 2012, dated 2016).

Structures can show the parent of a compound that is named as a salt.

The target in this test is T1, σ1-receptor (Cavia porcellus, UniProt Q60492).
T1 construct: Guinea pig brains were homogenized in 10 vols; (w/v) of Tris-HCl 50 mM 0.32 M sucrose, pH 7.4; from tissue; host or cells: guinea pig brain membranes
T1 sequence (Q60492 whole entry): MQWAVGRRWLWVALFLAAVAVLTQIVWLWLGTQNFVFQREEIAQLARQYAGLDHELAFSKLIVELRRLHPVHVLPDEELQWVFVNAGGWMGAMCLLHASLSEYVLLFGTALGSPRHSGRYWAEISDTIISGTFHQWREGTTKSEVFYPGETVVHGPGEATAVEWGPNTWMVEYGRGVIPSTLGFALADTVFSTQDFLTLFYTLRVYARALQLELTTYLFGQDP
The test is described as follows: σ1-receptor binding assay, [3H]-(+)-pentazocine, guinea pig brain membranes. Conditions: radioligand [3H]-(+)-pentazocine 5.0 nM, 150 min at 37° C., nonspecific binding with 1 μM haloperidol. As for the experimental part: Brain membrane preparation and binding assays for the σ1-receptor were performed as described (DeHaven-Hudkins, D. L., L. C. Fleissner, and F. Y. Ford-Rice, 1992, Characterization of the binding of [^3H](+)pentazocine to […] recognition sites in guinea pig brain, Eur. J. Pharmacol. 227, 371-378) with some modifications. Guinea pig brains were homogenized in 10 vols. (w/v) of Tris-HCl 50 mM 0.32 M sucrose, pH 7.4, with a Kinematica Polytron PT 3000 at 15000 r.p.m. for 30 s. The homogenate was centrifuged at 1000 g for 10 min at 4° C. and the supernatants collected and centrifuged again at 48000 g for 15 min at 4° C. The pellet was resuspended in 10 volumes of Tris-HCl buffer (50 mM, pH 7.4), incubated at 37° C. for 30 min, and centrifuged at 48000 g for 20 min at 4° C. Following this, the pellet was re-suspended in fresh Tris-HCl buffer (50 mM, pH 7.4) and stored on ice until use.
The radioligand used was [^3H]-(+)-pentazocine at 5.0 nM and the final volume was 200 μl. The incubation was initiated with the addition of 100 μl of membrane at a final tissue concentration of approximately 5 mg tissue net weight/mL and the incubation time was 150 m. at 37° C. After incubation, the membranes were collected onto pretreated glass fiber filterplate (MultiScreen-FC, Millipore), with polyethylenimine 0.1%. The filters were washed two times with 200 μl of washing buffer (50 mM Tris CI, pH=7.4) and then 25 μl of Ecoscint H liquid scintillation cocktail were added. Microplates were allowed to set for several hours and then quantified by liquid scintillation spectrophotometry (1450 Microbeta, Wallac). Nonspecific binding was determined with 1 μM haloperidol.
In the case of `C1=C(CCN2CCOCC2)c2cccc(-c3ccccc3)c2C1` [Compound 1, 4-(2-(7-phenyl-1H-inden-3-yl)ethyl)morpholine maleate], the Ki (commonly the equilibrium dissociation constant of an inhibitor or competing ligand from its target) is 0.003 µM. In turn, `Fc1ccc(-c2cccc3c2CC=C3CCN2CCCCCC2)cc1` [Compound 2, 1-(2-(7-(4-fluorophenyl)-1H-inden-3-yl)ethyl)azepane hydrochloride] yielded a Ki of 0.012 µM. `C1=C(CCN2CCOCC2)c2cccc(-c3ccncc3)c2C1` [Compound 3, 4-(2-(7-(pyridin-4-yl)-1H-inden-3-yl)ethyl)morpholine maleate] registered a Ki of 0.047 µM. This Ki lies about 3.9-fold higher than the previous one. Consider `CN1CCN(CCC2=CCc3c2cccc3-c2ccncc2F)CC1` [Compound 4, 1-(2-(7-(3-fluoropyridin-4-yl)-1H-inden-3-yl)ethyl)-4-methylpiperazine maleate], for which the affinity corresponds to a Ki of 0.024 µM. Then `CN1CCN(CCC2=CCc3c2cccc3-c2ccccc2)CC1` [Compound 5, 1-methyl-4-(2-(7-phenyl-1H-inden-3-yl)ethyl)piperazine maleate], with 0.013 µM; and `C1=C(CCN2CCN(c3ccccc3)CC2)c2cccc(-c3ccccc3)c2C1` [Compound 6, 1-phenyl-4-(2-(7-phenyl-1H-inden-3-yl)ethyl)piperazine maleate], with 0.031 µM.

As to `Clc1cccc(N2CCN(CCC3=CCc4c3cccc4-c3ccccc3)CC2)c1` [Compound 7, 1-(3-chlorophenyl)-4-(2-(7-phenyl-1H-inden-3-yl)ethyl)piperazine maleate], the Ki worked out at 0.063 µM. In the case of `C1=C(CCN2CCCCC2)c2cccc(-c3ccccc3)c2C1` [Compound 8, 1-(2-(7-phenyl-1H-inden-3-yl)ethyl)piperidine maleate] it was 0.007 µM; in that of `C1=C(CCN2CCCCCC2)c2cccc(-c3ccccc3)c2C1` [Compound 9, 1-(2-(7-phenyl-1H-inden-3-yl)ethyl)azepane maleate], 0.007 µM. `C1=C(CCN2CCC(c3ccccc3)CC2)c2cccc(-c3ccccc3)c2C1` [Compound 10, 4-phenyl-1-(2-(7-phenyl-1H-inden-3-yl)ethyl)piperidine maleate]: the Ki stood at 0.013 µM. `CC1=C(CCN2CCOCC2)c2cccc(-c3ccccc3)c2C1` [Compound 11, 4-(2-(2-methyl-7-phenyl-1H-inden-3-yl)ethyl)morpholine maleate] had an inhibition constant (Ki) of 0.028 µM. Against the preceding compound, the Ki is about 2.2-fold higher.

Turning to `CC1=C(CCN2CCN(C)CC2)c2cccc(-c3ccccc3)c2C1` [Compound 12, 1-methyl-4-(2-(2-methyl-7-phenyl-1H-inden-3-yl)ethyl)piperazine maleate], the Ki was 0.051 µM.

Compound `Fc1ccc(-c2cccc3c2CC=C3CCN2CCOCC2)cc1` [Compound 13, 4-(2-(7-(4-fluorophenyl)-1H-inden-3-yl)ethyl)morpholine maleate] came in with an inhibitory constant (Ki) of 0.004 µM. Consider `Fc1ccc(-c2cccc3c2CC=C3CCN2CCN(c3ccccc3)CC2)cc1` [Compound 14, 1-(2-(7-(4-fluorophenyl)-1H-inden-3-yl)ethyl)-4-phenylpiperazine maleate], for which the affinity, expressed as Ki, was 0.024 µM. Compared with the last compound, the Ki is about 6-fold higher. `Fc1ccc(-c2cccc3c2CC=C3CCN2CCCCC2)cc1` [Compound 15, 1-(2-(7-(4-fluorophenyl)-1H-inden-3-yl)ethyl)piperidine maleate] had a Ki of 0.008 µM.

With `CN1CCN(CCC2=CCc3c2cccc3-c2ccc(F)cc2)CC1` [Compound 16, 1-(2-(7-(4-fluorophenyl)-1H-inden-3-yl)ethyl)-4-methylpiperazine maleate], the affinity, expressed as Ki, was 0.012 µM. In the case of `CN1CCN(CCC2=CCc3c2cccc3-c2cccc(F)c2)CC1` [Compound 17, 1-(2-(7-(3-fluorophenyl)-1H-inden-3-yl)ethyl)-4-methylpiperazine maleate] it was 0.014 µM. Compound `Fc1cccc(-c2cccc3c2CC=C3CCN2CCOCC2)c1` [Compound 18, 4-(2-(7-(3-fluorophenyl)-1H-inden-3-yl)ethyl)morpholine maleate] returned an inhibition constant Ki of 0.004 µM. As to `Clc1ccc(-c2cccc3c2CC=C3CCN2CCOCC2)cc1Cl` [Compound 19, 4-(2-(7-(3,4-dichlorophenyl)-1H-inden-3-yl)ethyl)morpholine maleate], the Ki came to 0.012 µM. Take `CN1CCN(CCC2=CCc3c2cccc3-c2ccc(Cl)c(Cl)c2)CC1` [Compound 20, 1-(2-(7-(3,4-dichlorophenyl)-1H-inden-3-yl)ethyl)-4-methylpiperazine maleate]: the Ki was 0.025 µM. In the case of `COc1ccc(-c2cccc3c2CC=C3CCN2CCOCC2)cc1` [Compound 21, 4-(2-(7-(4-methoxyphenyl)-1H-inden-3-yl)ethyl)morpholine maleate] it was 0.053 µM; in that of `COc1ccc(-c2cccc3c2CC=C3CCN2CCN(C)CC2)cc1` [Compound 22, 1-(2-(7-(4-methoxyphenyl)-1H-inden-3-yl)ethyl)-4-methylpiperazine maleate], 0.129 µM.

Take `C1=C(CCN2CCOCC2)c2cccc(-c3ccsc3)c2C1` [Compound 25, 4-(2-(7-(thiophen-3-yl)-1H-inden-3-yl)ethyl)morpholine maleate]: the Ki was found to be 0.006 µM. On to `CN1CCN(CCC2=CCc3c2cccc3-c2ccsc2)CC1` [Compound 26, 1-methyl-4-(2-(7-(thiophen-3-yl)-1H-inden-3-yl)ethyl)piperazine maleate], for which the Ki is 0.007 µM. Then `CN1CCN(CCC2=CCc3c2cccc3-n2ccnn2)CC1` [Compound 27, 1-(2-(7-(1H-1,2,3-triazol-1-yl)-1H-inden-3-yl)ethyl)-4-methylpiperazine maleate], with 0.185 µM; and `Cc1noc(C)c1-c1cccc2c1CC=C2CCN1CCN(C)CC1` [Compound 28, 3,5-dimethyl-4-(3-(2-(4-methylpiperazin-1-yl)ethyl)-1H-inden-7-yl)isoxazole maleate], with 0.036 µM. Then `CN1CCN(CCC2=CCc3c2cccc3-c2cncnc2)CC1` [Compound 29, 5-(3-(2-(4-methylpiperazin-1-yl)ethyl)-1H-inden-7-yl)pyrimidine maleate], with 0.168 µM; and `CN1CCN(CCC2=CCc3c2cccc3-c2ccncc2)CC1` [Compound 30, 1-methyl-4-(2-(7-(pyridin-4-yl)-1H-inden-3-yl)ethyl)piperazine maleate], with 0.026 µM; and `CN1CCCN(CCC2=CCc3c2cccc3-c2ccncc2)CC1` [Compound 31, 1-methyl-4-(2-(7-(pyridin-4-yl)-1H-inden-3-yl)ethyl)-1,4-diazepane maleate], with 0.029 µM. Then `CN1CCN(CCC2=CCc3c2cccc3-c2ccnc(F)c2)CC1` [Compound 33, 1-(2-(7-(2-fluoropyridin-4-yl)-1H-inden-3-yl)ethyl)-4-methylpiperazine maleate], with 0.029 µM; and `C1=C(CCN2CCOCC2)c2cccc(-c3cccnc3)c2C1` [Compound 34, 4-(2-(7-(pyridin-3-yl)-1H-inden-3-yl)ethyl)morpholine maleate], with 0.082 µM.

Consider `CN1CCN(CCC2=CCc3c2cccc3-c2cccnc2)CC1` [Compound 35, 1-methyl-4-(2-(7-(pyridin-3-yl)-1H-inden-3-yl)ethyl)piperazine maleate], for which the Ki was 0.061 µM. The Ki values of the last two compounds are within 1.5-fold of each other. Then `COc1ccc(-c2cccc3c2CC=C3CCN2CCN(C)CC2)cn1` [Compound 36, 1-(2-(7-(6-methoxypyridin-3-yl)-1H-inden-3-yl)ethyl)-4-methylpiperazine maleate], with 0.037 µM. In the case of `CN1CCN(CCC2=CCc3c2cccc3-c2ccc(F)nc2)CC1` [Compound 37, 1-(2-(7-(6-fluoropyridin-3-yl)-1H-inden-3-yl)ethyl)-4-methylpiperazine maleate] it was 0.034 µM; in that of `CN1CCN(CCC2=CCc3c2cccc3-c2ccnn2C)CC1` [Compound 38, 1-methyl-4-(2-(7-(1-methyl-1H-pyrazol-5-yl)-1H-inden-3-yl)ethyl)piperazine maleate], 0.03 µM. In the case of `COc1ccc(-c2cccc3c2CC=C3CCN2CCOCC2)cn1` [Compound 39, 4-(2-(7-(6-methoxypyridin-3-yl)-1H-inden-3-yl)ethyl)morpholine maleate] it was 0.18 µM; in that of `CN1CCN(CCC2=CCc3cc(-c4ccncc4)ccc32)CC1` [Compound 40, 1-methyl-4-(2-(6-pyridin-4-yl)-1H-inden-3-yl)ethyl)piperazine maleate], 0.143 µM; in that of `CN1CCN(CCC2=CCc3cc(-c4ccnc(F)c4)ccc32)CC1` [Compound 41, 1-(2-(6-(2-fluoropyridin-4-yl)-1H-inden-3-yl)ethyl)-4-methylpiperazine maleate], 0.12 µM.
